Measured values published in patent US12649751B2 (Arcus Biosciences, Inc., priority 2022, dated 2026).
Where two headings read alike, the source gives them in different places.

How the values were obtained:
[1] = biological target: HPK1 (Homo sapiens, UniProt Q92918); experiment: HPK1 Biochemical Assay (ADP-Glo luminescence; low ATP 10 μM or high ATP 200 μM)
[2] = tested on: p-SLP-76 (Ser376) in Jurkat cells; experiment: pSLP76 Cellular Assay (AlphaLISA SureFire Ultra p-SLP-76 (Ser376), anti-CD3 activated Jurkat cells); format: cell-based; conditions: Homo sapiens, read-out: Cellular Potency
In short: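 Jurkat cells, serum-starved overnight in Opti-MEM then in HBSS, preincubated 1 h at 37 °C with 22-point 2-fold compound dilutions, then stimulated with anti-CD3 (0.025 mg/ml added solution) for 45 min. Lysate p-SLP-76 (Ser376) measured by AlphaLISA at 570 nm; IC50 from 4-parameter logistic fit.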

[3] = HPK1 ADP-Glo assay, high ATP (200 μM ATP, 5 nM HPK1), read-out: Biochemical Potency (high ATP)
[4] = pSLP76 (Ser376) AlphaLISA, anti-CD3 activated Jurkat cells
[5] = 2 nM HPK1, 10 μM ATP, read-out: Biochemical Potency (low ATP)
[6] = Jurkat cells, anti-CD3 stimulation, pSLP76
[7] = HPK1 ADP-Glo assay, low ATP (10 μM ATP, 2 nM HPK1), read-out: Biochemical Potency (low ATP)
[8] = 5 nM HPK1, 200 μM ATP, read-out: Biochemical Potency (high ATP)

HPK1, sequence (Q92918 whole entry, species assumed): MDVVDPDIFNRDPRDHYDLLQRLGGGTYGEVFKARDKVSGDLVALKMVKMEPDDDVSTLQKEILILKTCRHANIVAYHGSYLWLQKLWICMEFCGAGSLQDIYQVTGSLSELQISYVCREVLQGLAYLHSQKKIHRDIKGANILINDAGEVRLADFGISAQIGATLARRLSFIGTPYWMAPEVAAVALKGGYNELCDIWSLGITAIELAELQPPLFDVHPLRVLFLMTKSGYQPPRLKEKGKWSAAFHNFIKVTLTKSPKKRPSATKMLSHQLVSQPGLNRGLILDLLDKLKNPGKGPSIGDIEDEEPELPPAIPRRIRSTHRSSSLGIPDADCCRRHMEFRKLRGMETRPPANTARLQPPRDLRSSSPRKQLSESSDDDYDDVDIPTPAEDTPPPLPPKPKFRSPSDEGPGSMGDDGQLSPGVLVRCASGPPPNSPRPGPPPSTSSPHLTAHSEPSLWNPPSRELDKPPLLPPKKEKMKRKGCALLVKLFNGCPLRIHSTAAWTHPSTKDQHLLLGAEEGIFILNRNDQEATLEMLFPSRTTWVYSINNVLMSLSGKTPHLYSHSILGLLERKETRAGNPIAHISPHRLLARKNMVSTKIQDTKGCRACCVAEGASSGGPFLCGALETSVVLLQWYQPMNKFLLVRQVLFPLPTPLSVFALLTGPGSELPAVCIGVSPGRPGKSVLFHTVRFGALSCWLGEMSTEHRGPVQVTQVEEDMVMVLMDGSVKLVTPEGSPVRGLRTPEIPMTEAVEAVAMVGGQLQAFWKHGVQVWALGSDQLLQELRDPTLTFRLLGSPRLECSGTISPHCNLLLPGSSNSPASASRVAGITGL

## COc1cccnc1-c1nc2cc(Nc3cc(C)nc(N4C[C@@H]5C[C@H]4CN5C)n3)ncc2s1 [Example 469]
[1]; [3]
  IC50: < 0.1 µM
[2]; [4]
  IC50: 0.1 to 1 µM

## Cc1cc(Nc2cc3nc(-c4cnn(C(C)(C)C#N)c4)sc3cn2)nc(N2C[C@@H]3C[C@H]2CN3C)n1 [Example 371]
[1]; [3]
  IC50: < 0.1 µM
[2]; [4]
  IC50: 0.1 to 1 µM

## CN(C)Cc1nc(Nc2cc3nc(-c4ccncc4)sc3cn2)ccc1N1CCOCC1 [Example 5, 6-[(Dimethylamino)methyl]-5-(morpholin-4-yl)-N-[2-(pyridin-4-yl)-[1,3]thiazolo[5,4-c]pyridin-6-yl]pyridin-2-amine]
[1]; [5]
  IC50: < 0.1 µM
[2]; [6]
  IC50: < 0.1 µM

## Cc1cc(Nc2cc3nc(-c4cccc(C(=O)NC5CCCC5)c4)sc3cn2)nc(N2C[C@@H]3C[C@H]2CN3CCO)n1 [Example 545]
[1]; [3]
  IC50: < 0.1 µM
[2]; [4]
  IC50: < 0.1 µM

## CCN(C)C(=O)c1cccc(-c2nc3cc(Nc4cc(C)nc(N5C[C@@H]6C[C@H]5CN6CCO)n4)ncc3s2)c1 [Example 505]
[1]; [3]
  IC50: < 0.1 µM
[2]; [4]
  IC50: < 0.1 µM

## Cc1cc(Nc2cc3nc(-c4cnn(C(C)(C)C#N)c4)sc3cn2)nc(N2C[C@@H]3C[C@H]2CN3CCO)n1 [Example 355]
[1]; [3]
  IC50: < 0.1 µM
[2]; [4]
  IC50: 0.1 to 1 µM

## Cc1cc(Nc2cc3nc(-c4cnn(CC5CC5)c4)sc3cn2)nc(N2C[C@@H]3C[C@H]2CN3CC(=O)N(C)C)n1 [Example 356]
[1]; [3]
  IC50: 0.1 to 1 µM
[2]; [4]
  IC50: 1 to 5 µM

## Cc1cc(Nc2cc3nc(-c4cccc(C(=O)N5C[C@@H]6C[C@H]5CO6)c4)sc3cn2)nc(N2C[C@@H]3C[C@H]2CN3CCO)n1 [Example 564]
[1]; [3]
  IC50: < 0.1 µM
[2]; [4]
  IC50: 0.1 to 1 µM

## CN1C[C@@H]2C[C@H]1CN2c1cncc(Nc2cc3nc(-c4cccc(S(=O)(=O)N(C)C)c4)sc3cn2)n1 [Example 414]
[1]; [7]
  IC50: < 0.1 µM
[2]; [4]
  IC50: 1 to 5 µM

## CN1C[C@@H]2C[C@H]1CN2c1nccc(Nc2cc3nc(-c4ccnc(N5CC[C@@H](O)C5)c4)sc3cn2)n1 [Example 264, (3R)-1-{4-[6-({2-[(1S,4S)-5-Methyl-2,5-diazabicyclo[2.2.1]heptan-2-yl]pyrimidin-4-yl}amino)-[1,3]thiazolo[5,4-c]pyridin-2-yl]pyridin-2-yl}pyrrolidin-3-ol]
[1]; [5]
  IC50: < 0.1 µM
[2]; [6]
  IC50: 0.1 to 1 µM

## CN(C)Cc1nc(Nc2cc3nc(-c4c(F)cccc4F)sc3cn2)ccc1N1CCC(O)CC1 [Example 12, 1-(6-{[2-(2,6-Difluorophenyl)-[1,3]thiazolo[5,4-c]pyridin-6-yl]amino}-2-[(dimethylamino)methyl]pyridin-3-yl)piperidin-4-ol]
[1]; [5]
  IC50: < 0.1 µM
[2]; [6]
  IC50: 1 to 5 µM

## CN1C[C@@H]2C[C@H]1CN2c1cc(Cl)cc(Nc2cc3nc(-c4ccnc(C(C)(C)O)c4)sc3cn2)n1 [Example 333]
[1]; [3]
  IC50: < 0.1 µM
[2]; [4]
  IC50: 0.1 to 1 µM

## Cc1cc(Nc2cc3nc(-c4cncc(C(F)F)c4)sc3cn2)nc(N2C[C@@H]3C[C@H]2CN3C)n1 [Example 384]
[1]; [3]
  IC50: < 0.1 µM
[2]; [4]
  IC50: 0.1 to 1 µM

## CC(=O)N(C)CCN1C[C@@H]2C[C@H]1CN2c1nc(C)cc(Nc2cc3nc(-c4cccc(C(=O)N(C)C)c4)sc3cn2)n1 [Example 495]
[1]; [3]
  IC50: < 0.1 µM
[2]; [4]
  IC50: 0.1 to 1 µM

## CCN1C[C@@H]2C[C@H]1CN2c1nc(C)cc(Nc2cc3nc(-c4ccc(F)c(C(=O)NC5CCCC5)c4)sc3cn2)n1 [Example 513]
[1]; [3]
  IC50: < 0.1 µM
[2]; [4]
  IC50: < 0.1 µM

## CN1C[C@@H]2C[C@H]1CN2c1nccc(Nc2cc3nc(-c4ccnc(C(C)(O)C(F)(F)F)c4)sc3cn2)n1 (stereo partly shown) [Example 408]
[1]; [3]
  IC50: < 0.1 µM
[1]; [7]
  IC50: < 0.1 µM
[2]; [4]
  IC50: 0.1 to 1 µM

## Cc1cc(Nc2cc3nc(-c4cccc(S(=O)(=O)CC5CC5)c4)sc3cn2)nc(N2C[C@@H]3C[C@H]2CN3CCO)n1 [Example 501]
[1]; [3]
  IC50: < 0.1 µM
[2]; [4]
  IC50: < 0.1 µM

## Cc1cccnc1-c1nc2cc(Nc3ccc(C4CCOCC4)c(N4C[C@@H]5C[C@H]4CN5C)n3)ncc2s1 [Example 433]
[1]; [7]
  IC50: < 0.1 µM
[2]; [4]
  IC50: < 0.1 µM

## Cc1cc(Nc2cc3nc(-c4cccc(S(=O)(=O)N5CCCCC5)c4)sc3cn2)nc(N2C[C@@H]3C[C@H]2CN3C)n1 [Example 367]
[1]; [3]
  IC50: < 0.1 µM
[2]; [4]
  IC50: 1 to 5 µM

## Cc1cc(Nc2cc3nc(-c4cccc5c4C(C)(C)C(=O)N5)sc3cn2)nc(N2C[C@@H]3C[C@H]2CN3CCO)n1 [Example 350]
[1]; [3]
  IC50: < 0.1 µM
[2]; [4]
  IC50: < 0.1 µM

## Cc1cc(Nc2cc3nc(-c4ccnc(O[C@H]5CCOC5)c4)sc3cn2)nc(N2C[C@@H]3C[C@H]2CN3C)n1 [Example 482]
[1]; [3]
  IC50: < 0.1 µM
[2]; [4]
  IC50: 1 to 5 µM

## Cc1ccc(Nc2cc3nc(-c4c(F)cccc4F)sc3cn2)nc1CN(C)C [Example 46, N-[2-(2,6-Difluorophenyl)-[1,3]thiazolo[5,4-c]pyridin-6-yl]-6-[(dimethylamino)methyl]-5-methylpyridin-2-amine]
[1]; [5]
  IC50: < 0.1 µM
[2]; [6]
  IC50: 1 to 5 µM

## Cc1cc(Nc2cc3nc(-c4ccncc4O[C@H]4CCOC4)sc3cn2)nc(N2C[C@@H]3C[C@H]2CN3C)n1 [Example 481]
[1]; [3]
  IC50: < 0.1 µM
[2]; [4]
  IC50: 1 to 5 µM

## Cc1cccnc1-c1nc2cc(Nc3ccc4c(n3)[C@](C)(N)CCC4)ncc2s1 [Example 316, (8R)-8-methyl-N2-[2-(3-methylpyridin-2-yl)-[1,3]thiazolo[5,4-c]pyridin-6-yl]-5,6,7,8-tetrahydroquinoline-2,8-diamine]
[1]; [7]
  IC50: 1 to 5 µM
[2]; [4]
  IC50: 1 to 5 µM

## Cc1cc(Nc2cc3nc(-c4cncc(C5CC5)c4)sc3cn2)nc(N2C[C@@H]3C[C@H]2CN3CCO)n1 [Example 361]
[1]; [3]
  IC50: < 0.1 µM
[2]; [4]
  IC50: 0.1 to 1 µM

## COc1cccc(F)c1-c1nc2cc(Nc3cccc(N4CCN(C)CC4)n3)ncc2s1 [Example 81, N-[2-(2-Fluoro-6-methoxyphenyl)-[1,3]thiazolo[5,4-c]pyridin-6-yl]-6-(4-methylpiperazin-1-yl)pyridin-2-amine]
[1]; [5]
  IC50: < 0.1 µM
[2]; [6]
  IC50: 0.1 to 1 µM

## Cc1cc(-c2nc3cc(Nc4ccc(C5CCOCC5)c(CN[C@H]5CCOC5)n4)ncc3s2)ccn1 [Example 221, N-[2-(2-Methylpyridin-4-yl)-[1,3]thiazolo[5,4-c]pyridin-6-yl]-5-(oxan-4-yl)-6-({[(3S)-oxolan-3-yl]amino}methyl)pyridin-2-amine]
[1]; [5]
  IC50: < 0.1 µM
[2]; [6]
  IC50: 0.1 to 1 µM

## CCN1C[C@@H]2C[C@H]1CN2c1nc(Nc2cc3nc(-c4ccnc(C(C)(C)O)c4)sc3cn2)cc(C)c1F [Example 337]
[1]; [3]
  IC50: < 0.1 µM
[2]; [4]
  IC50: 0.1 to 1 µM

## Cc1cccnc1-c1nc2cc(Nc3cc(C4CCOCC4)nc(N4C[C@@H]5C[C@H]4CN5C)n3)ncc2s1 [Example 249, 2-[(1S,4S)-5-Methyl-2,5-diazabicyclo[2.2.1]heptan-2-yl]-N-[2-(3-methylpyridin-2-yl)-[1,3]thiazolo[5,4-c]pyridin-6-yl]-6-(oxan-4-yl)pyrimidin-4-amine]
[1]; [5]
  IC50: < 0.1 µM
[1]; [8]
  IC50: < 0.1 µM
[2]; [6]
  IC50: 0.1 to 1 µM

## CN1C[C@@H]2C[C@H]1CN2c1cncc(Nc2cc3nc(-c4cccc(C(C)(O)C(F)(F)F)c4)sc3cn2)n1 (stereo partly shown) [Example 410]
[1]; [3]
  IC50: < 0.1 µM
[1]; [7]
  IC50: < 0.1 µM
[2]; [4]
  IC50: 0.1 to 1 µM

## Cc1cc(Nc2cc3nc(-c4cccc(C(=O)N(C)C)c4)sc3cn2)nc(N2C[C@@H]3C[C@H]2CN3CCOCCO)n1 [Example 502]
[1]; [3]
  IC50: < 0.1 µM
[2]; [4]
  IC50: 0.1 to 1 µM

## c1cc(Nc2cc3nc(-n4cccn4)sc3cn2)nc(N2C[C@@H]3C[C@H]2CN3)c1 [Example 82, 6-[(1S,4S)-2,5-Diazabicyclo[2.2.1]heptan-2-yl]-N-[2-(1H-pyrazol-1-yl)-[1,3]thiazolo[5,4-c]pyridin-6-yl]pyridin-2-amine]
[1]; [5]
  IC50: < 0.1 µM
[2]; [6]
  IC50: < 0.1 µM

## Cc1cc(-c2nc3cc(Nc4ccc(C5CCOCC5)c(N5C[C@@H]6CCN(C)[C@@H]6C5)n4)ncc3s2)ccn1 [Example 248, 6-[(3aS,6aS)-1-Methyl-octahydropyrrolo[3,4-b]pyrrol-5-yl]-N-[2-(2-methylpyridin-4-yl)-[1,3]thiazolo[5,4-c]pyridin-6-yl]-5-(oxan-4-yl)pyridin-2-amine]
[1]; [5]
  IC50: < 0.1 µM
[1]; [8]
  IC50: < 0.1 µM
[2]; [6]
  IC50: < 0.1 µM

## Cc1ccc(Nc2cc3nc(-n4nccc4C)sc3cn2)nc1CN[C@H]1CCOC1 [Example 198, 5-Methyl-N-[2-(5-methyl-1H-pyrazol-1-yl)-[1,3]thiazolo[5,4-c]pyridin-6-yl]-6-({[(3S)-oxolan-3-yl]amino}methyl)pyridin-2-amine]
[1]; [5]
  IC50: < 0.1 µM
[2]; [6]
  IC50: > 5 µM

## CCN1C[C@@H]2C[C@H]1CN2c1nc(C)cc(Nc2cc3nc(-c4cccc(C(=O)N5CCC(C)(C)C5)c4)sc3cn2)n1 [Example 521]
[1]; [3]
  IC50: < 0.1 µM
[2]; [4]
  IC50: 0.1 to 1 µM

## Cc1cc(Nc2cc3nc(-c4cnn(CCO)c4)sc3cn2)nc(N2C[C@@H]3C[C@H]2CN3C)n1 [Example 381]
[1]; [3]
  IC50: < 0.1 µM
[2]; [4]
  IC50: 0.1 to 1 µM

## Cc1ccnn1-c1nc2cc(Nc3ccc(N4CCOCC4)c(C(C)(C)N)n3)ncc2s1 [Example 270, 6-(2-Aminopropan-2-yl)-N-[2-(5-methyl-1H-pyrazol-1-yl)-[1,3]thiazolo[5,4-c]pyridin-6-yl]-5-(morpholin-4-yl)pyridin-2-amine]
[1]; [5]
  IC50: < 0.1 µM
[2]; [6]
  IC50: 0.1 to 1 µM

## CCN1C[C@@H]2C[C@H]1CN2c1nc(Nc2cc3nc(-c4cnn(C)c4)sc3cn2)ccc1F [Example 322]
[1]; [3]
  IC50: < 0.1 µM
[2]; [4]
  IC50: 0.1 to 1 µM

## CCN1C[C@@H]2C[C@H]1CN2c1nc(C)cc(Nc2cc3nc(-c4cccc(C(=O)N5CCC[C@@H]5C)c4)sc3cn2)n1 [Example 526]
[1]; [3]
  IC50: < 0.1 µM
[2]; [4]
  IC50: < 0.1 µM
